Measured values as given in patent US20090305960A1, “Melanocortin Receptor-Specific Peptides for Treatment of Obesity / 669” (Palatin Technologies, Inc, priority 2008, published 2009).
Where a SMILES comes first, the peptide text is derived from it. Bridges are numbered along the chain shown (N, C = ends). [ ]: non-standard residue; d: D form. The star is where a group is joined. Orn = NCCC[C@H](N)C(=O)O; Bn = c1ccc(C*)cc1

What was measured:
[1] = Induction of penile erection in male rats; format: in vivo, rat; settings: IV
Protocol: The ability of peptides of the present invention to induce penile erection (PE) in male rats were evaluated with selected peptides. Male Sprague-Dawley rats weighing 250-300 g were kept on a 12 hour on/off light cycle with food and water ad libitum. All behavioral studies were performed between 9 a.m. and 4 p.m. Groups of 6-8 rats were administered peptides at a variety of doses via an IV route. Immediately after treatment, rats were placed into individual polystyrene cages (27 cm long, 16 cm wide, and 25 cm high) for behavioral observation, typically by remote video monitoring. Rats are observed for one hour, and the number of yawns, grooming bouts and PEs are recorded in 10-minute bins.

[2] = Food intake and body weight change in rats; format: in vivo, rat; settings: for decrease in food consumption compared to control: rats
Protocol: Change in food intake and body weight was evaluated for selected peptides administered by intravenous (IV) or subcutaneous injection routes. Male Sprague-Dawley rats were obtained from Hilltop Lab Animals, Inc. (Scottsdale, Pa.) or other vendors. Animals were individually housed in conventional polystyrene hanging cages and maintained on a controlled 12 hour on/off light cycle. Water and pelleted food was provided ad libitum. The rats were dosed IV with vehicle or selected peptides (0.3 to 1.0 mg/kg), or dosed subcutaneously with vehicle or selected peptides (doses up to 30 mg/kg). The changes in body weight and food intake for the 24 hour period after dosing was determined. The changes in body weight and food intake for the 48 hour and 72 hour periods after dosing can also be measured to determine reversal of changes in body weight and food intake effects back to baseline levels.

[3] = molecular target: T1, hMC4-R (Homo sapiens, UniProt P32245); experiment: Competitive binding assay using Eu-NDP-α-MSH, MC4-R
T1 construct: expressed in transfected cells; host or cells: HEK-293 (membrane homogenates)
Protocol: Competitive inhibition binding assays were performed using membrane homogenates prepared from HEK-293 cells that express recombinant hMC1-R, hMC3-R, hMC4-R, or hMC5-R. In the examples that follow, all MC1-R, MC3-R, MC4-R and MC5-R values are for human recombinant receptors. Assays were performed in 96 well GF/B Millipore multiscreen filtration plates (MAFB NOB10) pre-coated with 0.5% bovine serum albumin (Fraction V). Membrane homogenates were incubated with 0.1 nM [1^125]-NDP-α-MSH (Perkin Elmer) and increasing concentrations of test peptides of the present invention in buffer containing 25 mM HEPES buffer (pH 7.5) with 100 mM NaCl, 2 mM CaCl2, 2 mM MgCl2, 0.3 mM 1,10-phenanthroline, and 0.1% bovine serum albumin. After incubation for 90 minutes at 37° C., the assay mixture was filtered and the membranes washed with 1 mL of cold 1×PBS wash buffer per well. 35 μL of scintillation cocktail was added to each well and the plates counted on a Microbeta counter for 1 minute per well. Non-specific binding was measured by inhibition of binding of [I^125]-NDP-α-MSH in the presence of 1 μM NDP-α-MSH. Maximal specific binding (100%) was defined as the difference in radioactivity (cpm) bound to cell membranes in the absence and presence of 1 μM NDP-α-MSH. Radioactivity (cpm) obtained in the presence of test compounds was normalized with respect to 100% specific binding to determine the percent inhibition of [I^125]-NDP-α-MSH binding. Each assay was conducted in duplicate and actual mean values are described, with results less than 0% reported as 0%. Ki values for test peptides of the present invention were determined using Graph-Pad Prism® curve-fitting software.
Alternatively, a competitive inhibition binding assay was performed employing Eu-NDP-α-MSH (PerkinElmer Life Sciences catalog No. AD0225) with determination by time-resolved fluorometry (TRF) of the lanthanide chelate. In comparison studies with [I^125]-NDP-α-MSH, the same values, within experimental error ranges, were obtained for percent inhibition and Ki. Typically competition experiments to determine Ki values were conducted by incubating membrane homogenates prepared from HEK-293 cells that express recombinant hMC4-R with 9 different concentrations of test compounds of interest and 1 nM of Eu-NDP-α-MSH in a solution containing 25 mM HEPES buffer with 100 mM NaCl, 2 mM CaCl2, 2 mM MgCl2, 0.1% BSA, and 0.3 mM 1,10-phenanthroline. After incubation for 90 minutes at 37° C., the reaction was stopped by filtration over AcroWell 96-well filter plates (Pall Life Sciences). The filter plates were washed 4 times with 200 μL of ice-cold phosphate-buffered saline. DELFIA Enhancement solution (PerkinElmer Life Sciences) was added to each well. The plates were incubated on a shaker for 15 minutes and read at 340 nm excitation and 615 nm emission wavelengths. Each assay was conducted in duplicate and mean values were utilized. Ki values were determined by curve-fitting with Graph-Pad Prism® software using a one-site fixed-slope competition binding model.

[4] = molecular target: T2, hMC1-R (Homo sapiens, UniProt Q01726); experiment: Competitive binding assay, MC1-R; settings: competitive studies using Eu-NDP-α-MSH / NDP-α-MSH
T2 construct: expressed in transfected cells; host or cells: HEK-293 (membrane homogenates)
Protocol: Competitive inhibition binding assays were performed using membrane homogenates prepared from HEK-293 cells that express recombinant hMC1-R, hMC3-R, hMC4-R, or hMC5-R. In the examples that follow, all MC1-R, MC3-R, MC4-R and MC5-R values are for human recombinant receptors. Assays were performed in 96 well GF/B Millipore multiscreen filtration plates (MAFB NOB10) pre-coated with 0.5% bovine serum albumin (Fraction V). […] 35 μL of scintillation cocktail was added to each well and the plates counted on a Microbeta counter for 1 minute per well. […] Maximal specific binding (100%) was defined as the difference in radioactivity (cpm) bound to cell membranes in the absence and presence of 1 μM NDP-α-MSH. […] Ki values for test peptides of the present invention were determined using Graph-Pad Prism® curve-fitting software.
Alternatively, a competitive inhibition binding assay was performed employing Eu-NDP-α-MSH (PerkinElmer Life Sciences catalog No. AD0225) with determination by time-resolved fluorometry (TRF) of the lanthanide chelate. […] The plates were incubated on a shaker for 15 minutes and read at 340 nm excitation and 615 nm emission wavelengths. […] Ki values were determined by curve-fitting with Graph-Pad Prism® software using a one-site fixed-slope competition binding model.

[5] = rat feeding studies, overall finding in words

T1 sequence (P32245 whole entry): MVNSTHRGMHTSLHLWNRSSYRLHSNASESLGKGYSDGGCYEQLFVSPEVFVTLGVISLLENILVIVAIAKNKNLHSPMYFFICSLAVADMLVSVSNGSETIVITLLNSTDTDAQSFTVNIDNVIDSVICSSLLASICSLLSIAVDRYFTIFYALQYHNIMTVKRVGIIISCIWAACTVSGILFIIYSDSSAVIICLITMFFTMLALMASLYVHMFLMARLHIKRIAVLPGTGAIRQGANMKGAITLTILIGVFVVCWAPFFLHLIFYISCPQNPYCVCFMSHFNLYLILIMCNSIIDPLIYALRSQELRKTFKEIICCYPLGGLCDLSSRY
T2 sequence (Q01726 whole entry): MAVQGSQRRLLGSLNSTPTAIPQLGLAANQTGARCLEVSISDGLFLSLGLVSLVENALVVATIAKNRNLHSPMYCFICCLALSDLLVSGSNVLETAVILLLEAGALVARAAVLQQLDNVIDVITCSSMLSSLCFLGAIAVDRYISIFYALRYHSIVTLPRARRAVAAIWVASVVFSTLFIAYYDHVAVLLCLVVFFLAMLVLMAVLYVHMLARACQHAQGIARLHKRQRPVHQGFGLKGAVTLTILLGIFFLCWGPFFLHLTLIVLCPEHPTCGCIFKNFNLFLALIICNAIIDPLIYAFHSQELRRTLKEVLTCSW

Ki ([3]; competitive studies using Eu-NDP-α-MSH / NDP-α-MSH, average of several studies, read-out: Ki value at MC4-R): 0.009 µM
selectivity for MC4-R (binding against MC1-R, MC3-R and MC4-R) ([3]; in words): highly selective for MC4-R
Ki [4]: 2.04 µM
SMILES: CC(=O)N[C@@H](CCCNC(=N)N)C(=O)N[C@H]1CCCNC(=O)CC[C@@H](C(=O)O)NC(=O)[C@H](Cc2c[nH]c3ccccc23)NC(=O)[C@H](CCCNC(=N)N)NC(=O)[C@@H](Cc2ccccc2)NC(=O)[C@H](COCc2ccccc2)NC1=O [Compound 7, Ac-Arg-cyclo(Orn-Ser(Bzl)-D-Phe-Arg-Trp-Glu)-OH] (Ac-R[Orn]S(Bn)[dF]RWE-OH; lactam 2-7)
average spontaneous erections per rat in one hour ([1]; 1 mg/kg): 1.429±0.69 spontaneous erections per rat in one hour
increase in observed spontaneous erections ([1]; in words): not found to result in a statistically significant increase
food intake [2, 5]: reduce food intake
rate of change in body weight [2, 5]: decrease the rate of change in body weight
decrease in food consumption compared to control ([2]; 0.3 mg/kg, 0-2 hour period): statistically significant
decrease in food consumption compared to control ([2]; 0.3 mg/kg, 0-4 hour period): statistically significant
decrease in food consumption compared to control ([2]; 0.3 mg/kg, 0-20 hour period): statistically significant
decrease in food consumption compared to control ([2]; 1 mg/kg, 0-4 hour period): statistically significant
decrease in food consumption compared to control ([2]; 1 mg/kg, 0-20 hour period): statistically significant
decrease in food consumption compared to control ([2]; 1 mg/kg, 4-20 hour period): statistically significant
